Measurements as given in EP2970215B1, “PYRROLIDINE DERIVATIVES, PHARMACEUTICAL COMPOSITIONS CONTAINING THEM, AND THEIR USE IN THERAPY” (AbbVie Deutschland GmbH & Co. KG, priority 2013, dated 2014).

Molecular target: T1, human GlyT1c transporter (Homo sapiens, UniProt P48067)
T1 construct: expressed in transfected cells; host or cells: CHO cells (recombinant; line hGlyT1c_5_CHO is named for the uptake assay)
T1 sequence (P48067 1-706): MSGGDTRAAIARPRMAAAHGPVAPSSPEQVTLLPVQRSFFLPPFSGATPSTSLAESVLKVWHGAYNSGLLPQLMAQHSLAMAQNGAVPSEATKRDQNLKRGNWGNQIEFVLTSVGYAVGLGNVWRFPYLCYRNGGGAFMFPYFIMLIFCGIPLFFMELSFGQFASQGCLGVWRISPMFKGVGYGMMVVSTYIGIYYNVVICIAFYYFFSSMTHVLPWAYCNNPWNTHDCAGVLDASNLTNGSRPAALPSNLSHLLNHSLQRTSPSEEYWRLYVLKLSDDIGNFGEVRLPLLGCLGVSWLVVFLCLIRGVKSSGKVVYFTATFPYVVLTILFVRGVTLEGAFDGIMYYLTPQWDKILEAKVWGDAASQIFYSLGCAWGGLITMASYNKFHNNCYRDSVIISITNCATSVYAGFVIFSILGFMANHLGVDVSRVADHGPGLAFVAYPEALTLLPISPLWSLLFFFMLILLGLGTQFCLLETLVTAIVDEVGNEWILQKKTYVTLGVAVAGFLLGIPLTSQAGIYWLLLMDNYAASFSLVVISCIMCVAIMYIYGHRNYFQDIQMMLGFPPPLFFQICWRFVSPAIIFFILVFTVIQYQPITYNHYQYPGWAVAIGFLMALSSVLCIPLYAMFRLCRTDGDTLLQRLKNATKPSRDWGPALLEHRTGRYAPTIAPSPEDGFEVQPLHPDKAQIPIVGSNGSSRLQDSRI
Experiment: Radioligand binding assay using recombinant CHO cell membranes expressing human GlyT1
Conditions: radioligand binding to human GlyT1c transporter-expressing membranes
Text: 2. Radioligand binding assays using recombinant CHO cell membranes expressing human GlyT1: […]

Row | Ki | Structure (SMILES)
1 | ≤ 1 µM | Cn1cnc(S(=O)(=O)N2C[C@H](Nc3ccc4c(c3)CCO4)[C@@H](c3ccccc3)C2)c1 [Example 671, (3R,4S)-N-(2,3-dihydro-1-benzofuran-5-yl)-1-[(1-methyl-1H-imidazol-4-yl)sulfonyl]-4-phenylpyrrolidin-3-amine]
2 | ≤ 1 µM | CCCCC(O)C(=O)N[C@H]1CN(S(=O)(=O)c2cn(C)cn2)C[C@@H]1c1ccc(F)cc1 (stereo partly drawn) [Example 673, N-{(3R,4S)-4-(4-fluorophenyl)-1-[(1-methyl-1H-imidazol-4-yl)sulfonyl]pyrrolidin-3-yl}-2-hydroxyhexanamide]
3 | ≤ 1 µM | Cc1cc(N[C@H]2CN(S(=O)(=O)c3cn(C)cn3)C[C@@H]2c2ccc(F)cc2)ccc1C(F)(F)F [Example 676, (3R,4S)-4-(4-fluorophenyl)-1-[(1-methyl-1H-imidazol-4-yl)sulfonyl]-N-[3-methyl-4-(trifluoromethyl)phenyl]pyrrolidin-3-amine]
4 | ≤ 1 µM | Cn1cnc(S(=O)(=O)N2C[C@H](Nc3ccc4ccsc4c3)[C@@H](c3ccc(F)cc3)C2)c1 [Example 677, (3R,4S)-N-(1-benzothiophen-6-yl)-4-(4-fluorophenyl)-1-[(1-methyl-1H-imidazol-4-yl)sulfonyl]pyrrolidin-3-amine]
5 | ≤ 1 µM | Cn1cnc(S(=O)(=O)N2CC(Nc3cccc(OC(F)(F)F)c3)C(C3CCN(C4CC4)CC3)C2)c1 (centres unmarked) [Example 678, -4-(1-cyclopropylpiperidin-4-yl)-1-[(1-methyl-1H-imidazol-4-yl)sulfonyl]-N-[3-(trifluoromethoxy)phenyl]pyrrolidin-3-amine]
6 | ≤ 1 µM | CCCCCCN[C@H]1CN(S(=O)(=O)c2cn(C)cn2)C[C@@H]1C1CCCCO1 (stereo partly drawn) [Example 679, (3R,4S)-N-hexyl-1-[(1-methyl-1H-imidazol-4-yl)sulfonyl]-4-(tetrahydro-2H-pyran-2-yl)pyrrolidin-3-amine]
7 | ≤ 1 µM | Cn1cnc(S(=O)(=O)N2C[C@H](NCCCCC3OCCC(C)(C)O3)[C@@H](c3ccc(F)cc3)C2)c1 (stereo partly drawn) [Example 684, (3R,4S)-N-[4-(4,4-dimethyl-1,3-dioxan-2-yl)butyl]-4-(4-fluorophenyl)-1-[(1-methyl-1H-imidazol-4-yl)sulfonyl]pyrrolidin-3-amine]
8 | ≤ 0.1 µM | Cn1cnc(S(=O)(=O)N2C[C@H](Nc3cc(Cl)ncn3)[C@@H](c3ccc(F)cc3)C2)c1 [Example 691, 6-chloro-N-{(3R,4S)-4-(4-fluorophenyl)-1-[(1-methyl-1H-imidazol-4-yl)sulfonyl]pyrrolidin-3-yl}pyrimidin-4-amine]
9 | ≤ 1 µM | Cn1cnc(S(=O)(=O)N2C[C@H](NC(=O)Nc3ccccc3)[C@@H](c3ccc(F)cc3)C2)c1 [Example 692, 1-{(3R,4S)-4-(4-fluorophenyl)-1-[(1-methyl-1H-imidazol-4-yl)sulfonyl]pyrrolidin-3-yl}-3-phenylurea]
10 | ≤ 1 µM | Cn1cnc(S(=O)(=O)N2C[C@H](NC(=O)Nc3ccccc3Cl)[C@@H](c3ccc(F)cc3)C2)c1 [Example 694, 1-(2-chlorophenyl)-3-{(3R,4S)-4-(4-fluorophenyl)-1-[(1-methyl-1H-imidazol-4-yl)sulfonyl]pyrrolidin-3-yl}urea]
11 | ≤ 10 µM | CC(=O)CCCC(=O)N[C@H]1CN(S(=O)(=O)c2cn(C)cn2)C[C@@H]1c1ccc(F)cc1 [Example 695, N-{(3R,4S)-4-(4-fluorophenyl)-1-[(1-methyl-1H-imidazol-4-yl)sulfonyl]pyrrolidin-3-yl}-5-oxohexanamide]
12 | ≤ 10 µM | Cn1cnc(S(=O)(=O)N2C[C@H](NC(=O)C3CCC(C(F)(F)F)CC3)[C@@H](c3ccc(F)cc3)C2)c1 (stereo partly drawn) [Example 696, N-{(3R,4S)-4-(4-fluorophenyl)-1-[(1-methyl-1H-imidazol-4-yl)sulfonyl]pyrrolidin-3-yl}-4-(trifluoromethyl)cyclohexanecarboxamide]
13 | ≤ 1 µM | CCCCOC(=O)O[C@@H]1CN(S(=O)(=O)c2cn(C)cn2)C[C@H]1c1ccc(F)cc1 [Example 697, butyl (3S,4R)-4-(4-fluorophenyl)-1-[(1-methyl-1H-imidazol-4-yl)sulfonyl]pyrrolidin-3-yl carbonate]
14 | ≤ 1 µM | Cn1cnc(S(=O)(=O)N2C[C@H](NC(=O)CCCC(F)(F)F)[C@@H](c3ccc(F)cc3)C2)c1 [Example 698, 5,5,5-trifluoro-N-{(3R,4S)-4-(4-fluorophenyl)-1-[(1-methyl-1H-imidazol-4-yl)sulfonyl]pyrrolidin-3-yl}pentanamide]
15 | ≤ 10 µM | CCCC(F)(F)C(=O)N[C@H]1CN(S(=O)(=O)c2cn(C)cn2)C[C@@H]1c1ccc(F)cc1 [Example 700, 2,2-difluoro-N-{(3R,4S)-4-(4-fluorophenyl)-1-[(1-methyl-1H-imidazol-4-yl)sulfonyl]pyrrolidin-3-yl}pentanamide]
16 | ≤ 1 µM | Cn1cnc(S(=O)(=O)N2C[C@H](NC(=O)Nc3ccc(Cl)cc3)[C@@H](c3ccc(F)cc3)C2)c1 [Example 701, 1-(4-chlorophenyl)-3-{(3R,4S)-4-(4-fluorophenyl)-1-[(1-methyl-1H-imidazol-4-yl)sulfonyl]pyrrolidin-3-yl}urea]
17 | ≤ 10 µM | Cn1cnc(S(=O)(=O)N2C[C@H](NC(=O)Nc3ccccc3F)[C@@H](c3ccc(F)cc3)C2)c1 [Example 702, 1-(2-fluorophenyl)-3-{(3R,4S)-4-(4-fluorophenyl)-1-[(1-methyl-1H-imidazol-4-yl)sulfonyl]pyrrolidin-3-yl}urea]

Row | Structure (SMILES) | Ki
18 | Cn1cnc(S(=O)(=O)N2C[C@H](Nc3ccc4c(c3)C(C)(C)CCO4)[C@@H](c3ccc(F)cc3)C2)c1 [Example 672, (3R,4S)-N-(4,4-dimethyl-3,4-dihydro-2H-chromen-6-yl)-4-(4-fluorophenyl)-1-[(1-methyl-1H-imidazol-4-yl)sulfonyl]pyrrolidin-3-amine] | ≤ 1 µM
19 | CCCC(CCN[C@H]1CN(S(=O)(=O)c2cn(C)cn2)C[C@@H]1c1ccccc1)OC (stereo partly drawn) [Example 674, (3R,4S)-N-(3-methoxyhexyl)-1-[(1-methyl-1H-imidazol-4-yl)sulfonyl]-4-phenylpyrrolidin-3-amine] | ≤ 1 µM
20 | CC(C)c1cc(N[C@H]2CN(S(=O)(=O)c3cn(C)cn3)C[C@@H]2c2ccc(F)cc2)ccc1Cl [Example 675, (3R,4S)-N-[4-chloro-3-(propan-2-yl)phenyl]-4-(4-fluorophenyl)-1-[(1-methyl-1H-imidazol-4-yl)sulfonyl]pyrrolidin-3-amine] | ≤ 1 µM
21 | Cc1nc(Cl)cc(N[C@H]2CN(S(=O)(=O)c3cn(C)cn3)C[C@@H]2c2ccc(F)cc2)n1 [Example 690, 6-chloro-N-{(3R,4S)-4-(4-fluorophenyl)-1-[(1-methyl-1H-imidazol-4-yl)sulfonyl]pyrrolidin-3-yl}-2-methylpyrimidin-4-amine] | ≤ 1 µM
22 | Cn1cnc(S(=O)(=O)N2C[C@H](NC(=O)Oc3ccccc3)[C@@H](c3ccc(F)cc3)C2)c1 [Example 693, phenyl {(3R,4S)-4-(4-fluorophenyl)-1-[(1-methyl-1H-imidazol-4-yl)sulfonyl]pyrrolidin-3-yl}carbamate] | ≤ 10 µM
23 | Cn1cnc(S(=O)(=O)N2C[C@H](NC(=O)Nc3cccc(F)c3)[C@@H](c3ccc(F)cc3)C2)c1 [Example 703, 1-(3-fluorophenyl)-3-{(3R,4S)-4-(4-fluorophenyl)-1-[(1-methyl-1H-imidazol-4-yl)sulfonyl]pyrrolidin-3-yl}urea] | ≤ 1 µM
